Experimental data published in patent publication US20250262241A1, “METHODS TO IMPROVE STABILITY OF VIRUS TRANSDUCTION OF y8 T CELLS AND APPLICATIONS THEREOF” (UNICET BIOTECH CO. LLC., priority 2021, published 2025).
Several values for one entry are separate records, joined by “and”; a condition that tells them apart may be missing. Equal values may be shown once.

Experiments:
γδ2 T cells [1] = assay: Differentiation of γδ2 T cells cultured with/without BX795 (flow cytometry); type: cell-based, human
Protocol: (§1) Wash the cells once with PBS and then staining the cells with antibodies diluted in FACS buffer (PBS+1% FBS+2.5 mM EDTA) at 4° C. for 30 min. The common volume of incubated buffer was 50 μL for 2×10^cells.
(§2) After incubation, washed the cells with FACS buffer two times and then resuspended the cells in 200 ul FACS buffer and calculated the data by FACSCalibur (BD Biosciences). The antibodies used for γδ2 T cells were: APC anti-human CD3 (Biolegend, 300412), BV421 anti-human TCR Vδ2 (Biolegend, 331428).
On the other hand, the terminator γδ2 T cell percentage decreased from 2.595% to around 2%.

γδ1 T cells = assay: CAR related lentivirus transduction of γδ1 T cells with small inhibitors; type: cell-based, human; details: 0.06 uM; control finally around 2%
Protocol: (§3) For lentivirus transduction, 1×10^CFU lentivirus diluted in 200 ul PBS were added in a 24-well plate which were pre-coated with RetroNectin reagent (Takara) and centrifugated by 2,000 g for 2 hours at 32° C. After centrifugation, removed the supernatant and washed the plate with PBS three times slightly.
(§4) The plates were incubated at 37° C., 5% CO2.
To test the application of these small molecule on improving the transduction rate of δδ1 T cells. We evaluated the transduction rate of δδ1 T cells with/without different dosage of small molecules.

PDK1 = molecular target: T1, PDK1 (Homo sapiens, UniProt O15530); details: cited from earlier work
T1 sequence (O15530 1-556): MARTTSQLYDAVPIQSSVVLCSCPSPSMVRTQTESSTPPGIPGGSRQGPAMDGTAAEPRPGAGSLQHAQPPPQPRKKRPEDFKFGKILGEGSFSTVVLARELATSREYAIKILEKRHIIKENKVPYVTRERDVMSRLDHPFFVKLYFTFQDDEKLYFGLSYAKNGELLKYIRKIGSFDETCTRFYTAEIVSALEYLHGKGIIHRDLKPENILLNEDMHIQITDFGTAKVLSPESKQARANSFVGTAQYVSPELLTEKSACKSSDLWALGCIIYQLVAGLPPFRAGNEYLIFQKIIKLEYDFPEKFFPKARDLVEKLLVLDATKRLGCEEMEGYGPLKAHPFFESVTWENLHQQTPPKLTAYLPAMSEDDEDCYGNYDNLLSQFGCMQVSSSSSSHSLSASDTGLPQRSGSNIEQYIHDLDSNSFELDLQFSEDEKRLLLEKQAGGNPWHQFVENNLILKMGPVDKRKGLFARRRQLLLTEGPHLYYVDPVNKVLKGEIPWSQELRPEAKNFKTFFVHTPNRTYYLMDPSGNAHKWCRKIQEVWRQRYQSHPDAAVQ

[2] = test system: γδ T cell products cultured from PBMC; type: cell-based, human; details: 0.6 μM BX795, after 12 Days in vitro culture
Protocol: as §1, §2
The calculated cell types included γδ2 T, γδ2 CD56+ T, γδ1 T, αβT, NKT, T helper, cytotoxic T, B and NK cells.

TBK1 = molecular target: T2, TBK1 (Homo sapiens, UniProt Q9UHD2); details: cited from earlier work
T2 sequence (Q9UHD2 1-729): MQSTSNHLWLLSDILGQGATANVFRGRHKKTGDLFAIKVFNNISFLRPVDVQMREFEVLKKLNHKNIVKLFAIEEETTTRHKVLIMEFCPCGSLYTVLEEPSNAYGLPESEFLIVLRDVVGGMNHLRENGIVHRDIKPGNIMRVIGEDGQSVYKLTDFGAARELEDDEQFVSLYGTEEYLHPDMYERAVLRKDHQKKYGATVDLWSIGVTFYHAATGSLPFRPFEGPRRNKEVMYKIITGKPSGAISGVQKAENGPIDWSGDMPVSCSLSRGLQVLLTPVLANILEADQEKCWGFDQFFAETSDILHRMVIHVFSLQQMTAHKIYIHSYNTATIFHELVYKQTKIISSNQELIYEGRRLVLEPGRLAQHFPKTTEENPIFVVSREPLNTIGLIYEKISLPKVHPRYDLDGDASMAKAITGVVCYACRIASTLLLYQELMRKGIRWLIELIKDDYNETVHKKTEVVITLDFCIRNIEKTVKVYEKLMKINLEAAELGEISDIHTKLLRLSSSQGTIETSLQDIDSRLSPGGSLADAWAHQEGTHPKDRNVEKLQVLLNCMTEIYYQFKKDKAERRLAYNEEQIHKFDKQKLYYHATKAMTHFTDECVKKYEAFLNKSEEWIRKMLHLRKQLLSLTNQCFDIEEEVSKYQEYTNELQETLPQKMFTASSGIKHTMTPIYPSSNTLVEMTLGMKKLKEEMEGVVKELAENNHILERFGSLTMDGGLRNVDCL

γδ2 T cells [3] = assay: Lentivirus (GFP) transduction of γδ2 T cells with or without BX795; type: cell-based, human
Protocol: VSV-G pseudotyped lentiviral vectors were applied in this method. 1×10^7 293T cells were plated into a poly-D-lysine coated 100 mm dish. Next day the cells were transfected with 6 μg of pCDH-EF1-MCS-T2A-copGFP plasmid (Addgene, Plasmid #72263) or pCDH-EF1-CAR-T2A-copGFP plasmid modified from pCDH-EF1-MCS-T2A-copGFP, 4 μg of pspAx2 (Addgene, Plasmid #12260), 2 μg of pCMV-VSV-G (Addgene, Plasmid #8454) using 30 ug PEI transfection regents. After 8 hours of transfection, the cell culture medium was changed. The supernatant were collected 48 hours and 72 hours later. Concentrated the virus with Lenti-X™ Concentrator (Takara) and monitored the virus titers by transduction of 293T cells and stored the concentrated virus in −80° C. until further use.
as §3, §4, §2

γδ2 T cells [4] = assay: Exhausted marker expression of γδ2 T cells cultured with/without BX795; type: cell-based, human
Protocol: as §1, §2

γδ2 T cells [5] = type: cell-based, human; details: 0.6 uM
Protocol: as §4

## BX795
γδ2 T cells [1]; BX795 treatment vs control
  changes in differentiation of γδ2 T cell subtypes: No significant changes were found
γδ2 T cells [1]; adding BX795, control 1.865%
  central memory γδ2 T cells percentage rate: 4.225%
γδ2 T cells [1]; adding BX795, control 2.595%
  terminator γδ2 T cell percentage: around 2%
γδ2 T cells [1]; cultured with BX795
  Central memory γδ2 cell (CD3+TCRVδ2+ CD27+CD45RA−), cell percentage of total lymphocytes: 3.88% and 4.57%
  Effector γδ2 T cell (CD3+TCRVδ2+ CD27−CD45RA−), cell percentage of total lymphocytes: 81.23% and 80.00%
  Terminator γδ2 T cell (CD3+TCRVδ2+ CD27−CD45RA+), cell percentage of total lymphocytes: 1.91% and 2.03%
  naive γδ2 T cell (CD3+TCRVδ2+ CD27+CD45RA+), cell percentage of total lymphocytes: 0.25% and 0.10%
  γδ2 CD226+T cell (CD3+TCRVδ2+CD226+), cell percentage of total lymphocytes: 87.25% and 86.59%
  γδ2 NKG2D+T cell (CD3+TCRVδ2+NKG2D+), cell percentage of total lymphocytes: 87.17% and 86.50%
  γδ2 T cell (CD3+TCRVδ2+), cell percentage of total lymphocytes: 87.25% and 86.68%
γδ1 T cells
  effect on transduction rate of γδ1 T cells: could improve the transduction rate
PDK1
  IC50: 6 nM
[2]
  B cell (CO3−TCRVδ2−CD19+), cell percentage of total lymphocytes: 0.27% and 0.32%
  NK cell (CD3−TCRVδ2−CD56+), cell percentage of total lymphocytes: 2.66% and 2.20%
  NKT cell (CD3+TCRVδ2−TCRVδ1−TCRαβ+CD56+), cell percentage of total lymphocytes: 0.34% and 0.31%
  T helper cell (CD3+TCRVδ2−TCRVδ1− TCRαβ+CD56−CD8−CD4+), cell percentage of total lymphocytes: 5.26% and 5.40%
  cell types of the final γδ T cell products vs control group: comparable cell types with the control group
  αβ T cell (CD3+TCRVδ2−TCRVδ1−TCRαβ+), cell percentage of total lymphocytes: 7.22% and 7.20%
  γδ2 CD56+ T cell (CD3+TCRVδ2+ CD56+), cell percentage of total lymphocytes: 1.89% and 1.69%
  γδ2 T cell (CD3+TCRVδ2+), cell percentage of total lymphocytes: 85.93% and 86.52%
TBK1
  IC50: 6 nM
γδ2 T cells [3]; 0.2 μM or 0.6 μM BX795
  total positive transduced γδ2 T cells: greatly increased
γδ2 T cells [3]; 2 μM BX795
  final transduction rate, 2 μM compared with 0.6 μM BX795: not significant
γδ2 T cells [3]; 2 μM or 6 μM BX795, vs control group
  cell number of transduced γδ2 T cells: lower than the control group
γδ2 T cells [4]; BX795 treatment vs control
  cell percentage of exhausted cell types (PD-1, LAG-3, TIGIT, TIM-3): improved the cell percentage of all the exhausted cell types slightly
γδ2 T cells [4]; cultured with BX795
  γδ2 LAG-3+ T cell (CD3+TCRVδ2+LAG-3+), cell percentage of total lymphocytes: 85.58% and 85.77%
  γδ2 PD-1+ T cell (CD3+TCRVδ2+PD-1+), cell percentage of total lymphocytes: 11.83% and 11.17%
  γδ2 T cell (CD3+TCRVδ2+), cell percentage of total lymphocytes: 85.75% and 85.94%
  γδ2 TIGIT+ T cell (CD3+TCRVδ2+TIGIT+), cell percentage of total lymphocytes: 23.24% and 26.98%
  γδ2 TIM-3+ T cell (CD3+TCRVδ2+TIM-3+), cell percentage of total lymphocytes: 84.55% and 84.91%
γδ2 T cells [5]
  cell growth of γδ2 T: did not influence the cell growth
